Experimental findings from EPA's ToxValDB 9.5 are described below.

Series [1] concerns Rattus norvegicus. Conditions: subchronic, oral, drinking water, Fischer 344, Deaths + Body Weight Changes: decrease + Hematology: Hct increase, Hgb increase, RBC increase + Blood Chemistry: BUN increase ALT increase, ….
Series [2] deals with Rattus norvegicus.
The mark [3] stands for this setting: short-term, duration: 3 days, injection, subcutaneous, F, Crj:CD, uterus: uterine dry weight (absolute).
Setting [4] is: short-term, duration: 3 days, injection, subcutaneous, F, Sprague-Dawley, uterus: absolute blotted uterine weight.
Setting [5] is: short-term, duration: 10 days, oral, gavage, M, BrlHan:WIST, body weight.
[6] abbreviates: short-term, duration: 10 days, oral, gavage, M, BrlHan:WIST, male accessory sex gland: BC/LA weight (relative).
Setting [7] is: short-term, duration: 10 days, oral, gavage, M, BrlHan:WIST, male accessory sex gland: relative bulbourethral gland weight in the presence of TP + male accessory sex gland: relative seminal vesicle ….
Setting [8] is: short-term, duration: 10 days, oral, gavage, M, BrlHan:WIST, male accessory sex gland: relative ventral prostate weight in the presence of TP.
[9] abbreviates: reproduction developmental, duration: 28 days, inhalation, M, Sprague-Dawley, generation: P0, P0: Other Systems: Bone: Bone Histopathology + P0: Other Systems: Esophagus: Esophagus Histopathology + P0: Other Systems: Eye: Eye ….
[10] abbreviates: reproduction developmental, duration: 50 days, inhalation, F, Sprague-Dawley, generation: P0, P0: Other Systems: Bone: Bone Histopathology + P0: Other Systems: Esophagus: Esophagus Histopathology + P0: Other Systems: Eye: Eye ….
[11] abbreviates: short-term, duration: 3 weeks, inhalation, M/F, Alpk:Albino, Whole Body: Body Weight Change + Whole Body: Clinical Observations.
The mark [12] stands for this setting: short-term, duration: 28 days, oral, gavage, F, Sprague-Dawley, Liver: Liver Weight, Absolute + Liver: Liver Weight, Relative + Thyroid: Thyroid Gland Weight, Relative + Whole Body: Body Weight, Absolute….
[13] abbreviates: short-term, duration: 28 days, oral, gavage, F, Sprague-Dawley, Pituitary: Thyroid stimulating hormone (TSH) + Thyroid: Thyroxine (T4), Free (Free T4).
[14] abbreviates: short-term, duration: 28 days, oral, gavage, M, Sprague-Dawley, Epididymis: Epididymis Weight, Absolute + Epididymis: Epididymis Weight, Relative + Liver: Liver Weight, Relative + Liver: Liver, Abnormal ….
The mark [15] stands for this setting: short-term, duration: 28 days, oral, gavage, M, Sprague-Dawley, Epididymis: Epididymis, Abnormal Size + Pituitary: Thyroid stimulating hormone (TSH) + Prostate: Prostate, Abnormal Size + Seminal Vesicles….

As for `O=[Se](=O)([O-])[O-].[Na+].[Na+]` [Sodium selenate], the NOEL is 0.31 mg/kg-day in the series on Rattus norvegicus [1] (F) and 0.57 mg/kg-day with Rattus norvegicus [1] (M/F).

Consider `CCC(C)(c1ccc(O)cc1)c1ccc(O)cc1` [Bisphenol B], for which the LOEL stood at 200 mg/kg-day in the series with Rattus norvegicus [2] (setting [3]); 200 mg/kg-day in the series with Rattus norvegicus [2] (setting [4]); 600 mg/kg-day with Rattus norvegicus [2] (setting [5]); 200 mg/kg-day with Rattus norvegicus [2] (setting [6]); 600 mg/kg-day in the series with Rattus norvegicus [2] (setting [7]); 200 mg/kg-day with Rattus norvegicus [2] (setting [8]). Also, the NOEL in the series with Rattus norvegicus [2] (setting [3]) came to 20 mg/kg-day; with Rattus norvegicus [2] (setting [4]), 20 mg/kg-day; in the series with Rattus norvegicus [2] (setting [5]), 200 mg/kg-day; in the series on Rattus norvegicus [2] (short-term, duration: 10 days, oral, gavage, M, BrlHan:WIST, body weight in the presence of TP + body weight the absence of TP + male accessory sex gland: relative bulbourethral gland weight in the …) it was 600 mg/kg-day; with Rattus norvegicus [2] (setting [6]) it was 50 mg/kg-day; with Rattus norvegicus [2] (short-term, duration: 10 days, oral, gavage, M, BrlHan:WIST, male accessory sex gland: Cowper's gland weight (relative) + male accessory sex gland: glans penis weight (relative) + male accessory sex …), 600 mg/kg-day. The NOEL with Rattus norvegicus [2] (setting [7]) was found to be 200 mg/kg-day; in the series with Rattus norvegicus [2] (setting [8]), 50 mg/kg-day.

Take `FC(F)=C(F)OC(F)(F)C(F)(F)C(F)(F)F` [Perfluoropropyl trifluorovinyl ether]: the LOAEL – broadly, the lowest tested level that showed an adverse finding – was 43900 mg/m3 with Rattus norvegicus [2] (reproduction developmental, duration: 28 days, inhalation, M, Sprague-Dawley, generation: P0, P0: Cardiovascular: Aorta: Aorta Histopathology + P0: Cardiovascular: Heart: Heart Histopathology + P0: Cardiovascular: Heart: Heart Weight…); 43900 mg/m3 in the series on Rattus norvegicus [2] (setting [9]); 43900 mg/m3 in the series on Rattus norvegicus [2] (reproduction developmental, duration: 50 days, inhalation, F, Sprague-Dawley, generation: P0, P0: Cardiovascular: Aorta: Aorta Histopathology + P0: Cardiovascular: Heart: Heart Histopathology + P0: Cardiovascular: Heart: Heart Weight…); 43900 mg/m3 in the series on Rattus norvegicus [2] (setting [10]). In addition, the NOAEL with Rattus norvegicus [2] (setting [9]) and with Rattus norvegicus [2] (setting [10]) was 10900 mg/m3 in each case. The NEL in the series with Rattus norvegicus [2] (short-term, duration: 3 weeks, inhalation, F, Alpk:Albino, Multi-organ: Uterus and Gonad (Unspecified) Histopathology) is 54400 mg/m3; in the series on Rattus norvegicus [2] (short-term, duration: 3 weeks, inhalation, M/F, Alpk:Albino, Blood: Potassium (K), Blood + Blood: Sodium (Na), Blood + Heart: Heart Histopathology + Kidney: Glucose (GLU), Urine + Kidney: Protein, …), 54400 mg/m3; in the series with Rattus norvegicus [2] (setting [11]), 27200 mg/m3; in the series with Rattus norvegicus [2] (short-term, duration: 3 weeks, inhalation, M, Alpk:Albino, Multi-organ: Epididymis and Gonad (Unspecified) Histopathology), 54400 mg/m3. In addition, the LEL with Rattus norvegicus [2] (setting [11]) amounted to 54400 mg/m3.

As for `FC(F)(I)C(F)(F)C(F)(F)C(F)(F)I` [Perfluoro-1,4-diiodobutane], the LOAEL is 30 mg/kg-day in the series on Rattus norvegicus [2] (setting [12]); 10 mg/kg-day in the series with Rattus norvegicus [2] (setting [13]); 30 mg/kg-day with Rattus norvegicus [2] (setting [14]); 10 mg/kg-day in the series on Rattus norvegicus [2] (setting [15]); 1 mg/kg-day in the series on Rattus norvegicus [2] (short-term, duration: 28 days, oral, gavage, M, Sprague-Dawley, Thyroid: Triiodothyronine, Free (Free T3)). In addition, the NOAEL (usually the highest tested level that showed no adverse finding) in the series with Rattus norvegicus [2] (setting [12]) was 10 mg/kg-day; in the series with Rattus norvegicus [2] (short-term, duration: 28 days, oral, gavage, F, Sprague-Dawley, Liver: Liver, Abnormal Area(s) + Liver: Liver, Abnormal Shape + Multi-organ: Follicle stimulating hormone (FSH) + Multi-organ: Luteinizing …), 30 mg/kg-day; with Rattus norvegicus [2] (setting [13]) it was 3 mg/kg-day; with Rattus norvegicus [2] (setting [14]) it was 10 mg/kg-day; with Rattus norvegicus [2] (setting [15]), 3 mg/kg-day; in the series with Rattus norvegicus [2] (short-term, duration: 28 days, oral, gavage, M, Sprague-Dawley, Liver: Liver Weight, Absolute + Liver: Liver, Abnormal Area(s) + Liver: Liver, Abnormal Shape + Liver: Liver, Abnormal Size + Multi-organ: …) it was 30 mg/kg-day.
